Among the data in patent publication US10758534B2 (Vertex Pharmaceuticals Incorporated, priority 2014, dated 2020) are EC30 values, retold here.

SMILES strings stand for the structures.

The first assay deals with T1, F508del (Homo sapiens, UniProt P13569, DEL508-508).
T1 construct: expressed in transfected cells
T1 sequence (P13569 with tags, fused parts or gaps DEL508-508): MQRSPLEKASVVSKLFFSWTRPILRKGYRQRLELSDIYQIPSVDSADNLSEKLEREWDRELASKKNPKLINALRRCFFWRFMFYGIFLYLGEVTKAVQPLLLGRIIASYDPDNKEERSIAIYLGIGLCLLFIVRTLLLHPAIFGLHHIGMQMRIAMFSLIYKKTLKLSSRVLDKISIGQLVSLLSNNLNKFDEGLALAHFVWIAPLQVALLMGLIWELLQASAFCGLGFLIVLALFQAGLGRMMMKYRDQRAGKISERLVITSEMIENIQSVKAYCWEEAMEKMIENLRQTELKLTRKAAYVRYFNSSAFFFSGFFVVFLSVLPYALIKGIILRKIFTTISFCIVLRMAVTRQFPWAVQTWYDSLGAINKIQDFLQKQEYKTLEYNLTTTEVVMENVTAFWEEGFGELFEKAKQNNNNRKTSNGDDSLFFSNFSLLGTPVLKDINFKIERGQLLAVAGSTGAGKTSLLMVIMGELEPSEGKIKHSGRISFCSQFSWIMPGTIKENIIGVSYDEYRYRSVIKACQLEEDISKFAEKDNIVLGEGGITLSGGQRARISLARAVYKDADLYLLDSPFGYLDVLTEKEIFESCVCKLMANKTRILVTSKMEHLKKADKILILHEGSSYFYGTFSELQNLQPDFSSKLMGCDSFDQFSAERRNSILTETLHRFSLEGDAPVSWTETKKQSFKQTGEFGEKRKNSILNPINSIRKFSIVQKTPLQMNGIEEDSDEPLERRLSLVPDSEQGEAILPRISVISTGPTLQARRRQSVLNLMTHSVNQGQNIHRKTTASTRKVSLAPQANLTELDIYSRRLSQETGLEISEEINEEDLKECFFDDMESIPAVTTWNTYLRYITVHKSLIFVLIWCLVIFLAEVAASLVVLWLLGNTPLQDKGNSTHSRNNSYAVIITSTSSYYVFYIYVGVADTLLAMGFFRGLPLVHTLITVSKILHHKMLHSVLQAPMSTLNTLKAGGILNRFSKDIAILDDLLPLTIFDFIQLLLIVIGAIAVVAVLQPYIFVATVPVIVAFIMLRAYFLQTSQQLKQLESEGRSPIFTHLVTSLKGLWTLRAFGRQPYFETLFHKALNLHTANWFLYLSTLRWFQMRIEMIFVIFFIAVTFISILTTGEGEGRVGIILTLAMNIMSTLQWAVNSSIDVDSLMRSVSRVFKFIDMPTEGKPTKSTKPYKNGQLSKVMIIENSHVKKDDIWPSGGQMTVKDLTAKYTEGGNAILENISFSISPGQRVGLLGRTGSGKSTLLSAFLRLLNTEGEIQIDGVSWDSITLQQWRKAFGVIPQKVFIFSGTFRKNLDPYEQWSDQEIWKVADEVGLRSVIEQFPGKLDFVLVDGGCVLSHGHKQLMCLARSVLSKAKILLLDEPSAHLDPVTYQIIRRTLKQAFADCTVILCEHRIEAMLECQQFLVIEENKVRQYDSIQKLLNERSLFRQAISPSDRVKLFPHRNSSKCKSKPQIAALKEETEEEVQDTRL
As to the kind of experiment: Protocol 2: FRET membrane potential optical assay (VIPR), identification of correction compounds. To be noted: F508del CFTR modulator activity; compounds of Table 1; read-out: EC30. The assay is classed as cell-based. In outline: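 Mouse NIH3T3 cells, stable F508del; cpd 16 hrs, 37° C., serum-free; pos ctrl 27° C. 16 hrs. Rinse in Krebs Ringers, dye load, then add 10 μM forskolin + 20 μM genistein with Cl^−-free (gluconate) medium; depolarization by FRET voltage dyes.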
By EC30 is commonly meant the concentration at which the effect reaches the 30% level. Regarding `CC1CN(c2ncccc2C(=O)NS(=O)(=O)c2cccc(N3CCc4cc(Cl)ccc43)n2)C(C)(C)C1` (stereo not shown) [Compound 2385, N—[[6-(5-chloroindolin-1-yl)-2-pyridyl]sulfonyl]-2-(2,2,4-trimethylpyrrolidin-1-yl)pyridine-3-carboxamide], the EC30 is under 3 µM.

With `CC1CN(c2ncccc2C(=O)NS(=O)(=O)c2cccc(Oc3ccc4nonc4c3)n2)C(C)(C)C1` (stereo not shown) [Compound 2727], the concentration for an effect of 30% (EC30) was under 3 µM. The same measure, in the same setting: next, `C[C@@H]1CN(c2nc(C(C)(C)C)c(C3=CCN(C(=O)Cc4ccccc4)CC3)cc2C(=O)NS(=O)(=O)c2cccc(N)n2)C(C)(C)C1` [Compound 2417, N-[(6-amino-2-pyridyl)sulfonyl]-6-tert-butyl-5-[1-(2-phenylacetyl)-3,6-dihydro-2H-pyridin-4-yl]-2-[(4S)-2,2,4-trimethylpyrrolidin-1-yl]pyridine-3-carboxamide]: under 3 µM; `CC1CN(c2ncccc2C(=O)NS(=O)(=O)c2cccc(OCCC3CCOCC3)n2)C(C)(C)C1` (stereo not shown) [Compound 2329, N—[[6-(2-tetrahydropyran-4-ylethoxy)-2-pyridyl]sulfonyl]-2-(2,2,4-trimethylpyrrolidin-1-yl)pyridine-3-carboxamide]: under 3 µM; `CC1CN(c2ncccc2C(=O)NS(=O)(=O)c2cccc(OCC(C)(C)C)n2)C(C)(C)C1` (stereo not shown) [Compound 2412, N—[[6-(2,2-dimethylpropoxy)-2-pyridyl]sulfonyl]-2-(2,2,4-trimethylpyrrolidin-1-yl)pyridine-3-carboxamide]: under 3 µM. On the same count and under the same terms, next, `COc1ccc(Nc2cccc(S(=O)(=O)NC(=O)c3cccnc3N3CC(C)CC3(C)C)n2)cc1Cl` (stereo not shown) [Compound 2571, N—[[6-(3-chloro-4-methoxy-anilino)-2-pyridyl]sulfonyl]-2-(2,24-trimethylpyrrolidin-1-yl)pyridine-3-carboxamide]: under 3 µM; `C[C@@H]1CN(c2nc(C3=CCCN(C(=O)CC4CCCCC4)C3)ccc2C(=O)NS(=O)(=O)c2cccc(N)n2)C(C)(C)C1` [Compound 2633, N-[(6-amino-2-pyridyl)sulfonyl]-6-[1-(2-cyclohexylacetyl)-3,6-dihydro-2H-pyridin-5-yl]-2-[(4S)-2,2,4-trimethylpyrrolidin-1-yl]pyridine-3-carboxamide]: 3 to 10 µM; `CC(C)Oc1cccc(-c2ccc(C(=O)NS(=O)(=O)c3ccc[nH]c3=O)c(N3C[C@@H](C)CC3(C)C)n2)c1` [Compound 2549, 6-(3-isopropoxyphenyl)-N-[(2-oxo-1H-pyridin-3-yl)sulfonyl]-2-[(4S)-2,2,4-trimethylpyrrolidin-1-yl]pyridine-3-carboxamide]: under 3 µM. As for `CC1CN(c2ncccc2C(=O)NS(=O)(=O)c2cccc(NC3CCCCC3C)n2)C(C)(C)C1` (stereo not shown) [Compound 2218, N—[[6-[(2-methylcyclohexyl)amino]-2-pyridyl]sulfonyl]-2-(2,2,4-trimethylpyrrolidin-1-yl)pyridine-3-carboxamide], the EC30 is under 3 µM. The same measure, in the same setting: as for `CC1CN(c2ncccc2C(=O)NS(=O)(=O)c2cccc(N3CCCc4ccccc43)n2)C(C)(C)C1` (stereo not shown) [Compound 2382, N—[[6-(3,4-dihydro-2H-quinolin-1-yl)-2-pyridyl]sulfonyl]-2-(2,2,4-trimethylpyrrolidin-1-yl)pyridine-3-carboxamide], the figure is under 3 µM.

`COC(=O)c1cccc(Nc2cccc(S(=O)(=O)NC(=O)c3cccnc3N3CC(C)CC3(C)C)n2)c1` (stereo not shown) [Compound 2493, methyl 3-[[6-[[2-(2,2,4-trimethylpyrrolidin-1-yl)pyridine-3-carbonyl]sulfamoyl]-2-pyridyl]amino]benzoate]: the EC30 was under 3 µM. Same read-out and setting: next, `CCOCCN(C)c1ncc(-c2ccc(C(=O)NS(=O)(=O)c3cccc(N)n3)c(N3C[C@@H](C)CC3(C)C)n2)cc1C` [Compound 2682]: under 3 µM.

Staying with this assay, now noted: Table 3; compounds of Table 1 as modulators of CFTR activity; protocol not stated.
For the compound `CC(C)COc1cc(F)cc(-c2ccc(C(=O)NS(=O)(=O)c3cccc(N)n3)c(OCC3CCO3)n2)c1` (stereo not shown) [Compound 640, N-[(6-amino-2-pyridyl)sulfonyl]-6-(3-fluoro-5-isobutoxy-phenyl)-2-(oxetan-2-ylmethoxy)pyridine-3-carboxamide], the EC30 result was “++ (“++” means between 3 uM and 10 uM)”. In the case of `Cc1cc(C)c(Oc2nc(-c3ccc(N(C)C)nc3)ccc2C(=O)NS(=O)(=O)c2cccc(N)n2)c(C)c1` [Compound 787, N-[(6-amino-2-pyridyl)sulfonyl]-6-[6-(dimethylamino)-3-pyridyl]-2-(2,4,6-trimethylphenoxy)pyridine-3-carboxamide], the 30% effect concentration (EC30) result is given as “+++ (“+++” means <3 uM)”. Consider `Cc1cc(C)c(Oc2nc(-c3ccc(C#N)cc3)ccc2C(=O)NS(=O)(=O)c2cccc(N)n2)c(C)c1` [Compound 216, N-[(6-amino-2-pyridyl)sulfonyl]-6-(4-cyanophenyl)-2-(2,4,6-trimethylphenoxy)pyridine-3-carboxamide], for which the EC30 entry is on record as “+++ (“+++” means <3 uM)”. The same measure, in the same setting: as for `CC(Oc1nc(C(C)(C)C)ccc1C(=O)NS(=O)(=O)c1cccc(N)c1)c1ccccc1` (stereo not shown) [Compound 219, N-(3-aminophenyl)sulfonyl-6-tert-butyl-2-(1-phenylethoxy)pyridine-3-carboxamide], the entry is “+++ (“+++” means <3 uM)”.

As for `Cc1cc(C(=O)NS(=O)(=O)c2cccc(N)n2)c(N2[C@H](C)CC[C@@H]2C)nc1-c1ccc(OC(C)C)nc1` [Compound 486, N-[(6-amino-2-pyridyl)sulfonyl]-2-[(2R,5S)-2,5-dimethylpyrrolidin-1-yl]-6-(6-isopropoxy-3-pyridyl)-5-methyl-pyridine-3-carboxamide], the 30% effect concentration (EC30) result was “++ (“++” means between 3 uM and 10 uM)”. Same read-out and setting: as for `CC(C)COc1cc(F)cc(-c2ccc(C(=O)NS(=O)(=O)c3ccccc3)c(N3CCC(C)(C)CC3)n2)c1` [Compound 583, N-(benzenesulfonyl)-2-(4,4-dimethyl-1-piperidyl)-6-(3-fluoro-5-isobutoxy-phenyl)pyridine-3-carboxamide], the entry is “+++ (“+++” means <3 uM)”; as for `CC1CCN(c2nc(-c3cc(F)cc(OCC4CC4)c3)ccc2C(=O)NS(=O)(=O)c2ccc[nH]c2=O)CC1` [Compound 664, 6-[3-(cyclopropylmethoxy)-5-fluoro-phenyl]-2-(4-methyl-1-piperidyl)-N-[(2-oxo-1H-pyridin-3-yl)sulfonyl]pyridine-3-carboxamide], “+++ (“+++” means <3 uM)”; as for `CC(C)COc1cc(F)cc(-c2ccc(C(=O)NS(=O)(=O)c3ccn[nH]3)c(NCC3CC(F)(F)C3)n2)c1` [Compound 393, 2-[(3,3-difluorocyclobutyl)methylamino]-6-(3-fluoro-5-isobutoxy-phenyl)-N-(1H-pyrazol-5-ylsulfonyl)pyridine-3-carboxamide], “++ (“++” means between 3 uM and 10 uM)”.

Consider `Cc1cc(C)c(Oc2nc(C)c(C#N)cc2C(=O)NS(=O)(=O)c2cccc(N)c2)c(C)c1` [Compound 124, N-(3-aminophenyl)sulfonyl-5-cyano-6-methyl-2-(2,4,6-trimethylphenoxy)pyridine-3-carboxamide], for which the 30% effect concentration (EC30) result was “++ (“++” means between 3 uM and 10 uM)”. As to `CC(C)(C)c1ccc(C(=O)NS(=O)(=O)c2cccc(N)n2)c(N2CCC[C@H](c3ccccc3)C2)n1` [Compound 626, N-[(6-amino-2-pyridyl)sulfonyl]-6-tert-butyl-2-[(3R)-3-phenyl-1-piperidyl]pyridine-3-carboxamide], the EC30 result is “+++ (“+++” means <3 uM)”.
